Source: US12568972B2, “Pyridazinol compounds and derivatives, preparation methods, herbicidal compositions and applications thereof” (Qingdao Kingagroot Chemical Compound Co., Ltd., priority 2018, dated 2026)

Tests used:
Assay in all cases: Post-emergence test, weed control effect
Type in all cases: in vivo
Settings in all cases: after 3 weeks
[1] = system: Veronica polita
In short: (§1)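 Weeds grown from seed in soil-filled pots in a greenhouse were sprayed at the 2-3 leaf stage, 2-3 weeks after sowing, with compound in acetone/Tween-80/water plus 80% vegetable oil methyl ester synergist at 1500 g/ha. Fresh-weight inhibition was scored on a 0-10 scale after 3 weeks.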

[2] = system: Rorippa indica
In short: as §1

[3] = system: Chenopodiaceae
In short: as §1

[4] = system: Amaranthus retroflexus
In short: as §1

| SMILES | weed control effect (activity level), Veronica polita ([1]; Dose 3000 g/ha) | weed control effect (activity level), Rorippa indica ([2]; Dose 3000 g/ha) | weed control effect (activity level), Chenopodiaceae ([3]; Dose 3000 g/ha) | weed control effect (activity level), Amaranthus retroflexus ([4]; Dose 3000 g/ha) | weed control effect, Veronica polita (activity level) ([1]; Dose 3000 g/ha) | weed control effect, Rorippa indica (activity level) ([2]; Dose 3000 g/ha) | weed control effect, Chenopodiaceae (activity level) ([3]; Dose 3000 g/ha) | weed control effect, Amaranthus retroflexus (activity level) ([4]; Dose 3000 g/ha) | also measured |
| --- | --- | --- | --- | --- | --- | --- | --- | --- | --- |
| Oc1cc(C(F)(F)F)nnc1-c1cncc(F)c1F [Compound 990] | 10 | 10 | 10 | 10 | – | – | – | – | – |
| Cc1ccc(-c2nnc(C(F)(F)F)cc2OC(=O)OCC(C)(C)C)c([N+](=O)[O-])c1 [Compound 1-33] | – | – | – | – | 10 | 10 | 10 | 10 | – |
| Oc1cc(C(F)(F)F)nnc1-c1ccccc1Cl [Compound 30] | – | – | – | – | – | – | – | – | weed control effect (activity level), Veronica polita ([1]; dose 1000 g/ha): 10; weed control effect (activity level), Rorippa indica ([2]; dose 1000 g/ha): 10; weed control effect (activity level), Chenopodiaceae ([3]; dose 1000 g/ha): 10; weed control effect (activity level), Amaranthus retroflexus ([4]; dose 1000 g/ha): 10 |
| Oc1cc(C(F)(F)F)nnc1-c1ccc2cnccc2c1 [Compound 634] | 10 | 10 | 10 | 10 | – | – | – | – | – |
| Oc1cc(C(F)(F)F)nnc1-c1ccc(C2CC2Cl)cc1 (stereo not drawn) [Compound 111] | – | – | – | – | – | – | – | – | weed control effect (activity level), Veronica polita ([1]; dose 1000 g/ha): 10; weed control effect (activity level), Rorippa indica ([2]; dose 1000 g/ha): 10; weed control effect (activity level), Chenopodiaceae ([3]; dose 1000 g/ha): 10; weed control effect (activity level), Amaranthus retroflexus ([4]; dose 1000 g/ha): 10 |
| Fc1ccc(-c2nnc(C(F)(F)F)cc2OCc2ccccc2)cc1 [Compound 1-209] | – | – | – | – | 10 | 10 | 10 | 10 | – |
| CC(C)c1ccc(-c2nnc(C(F)(F)F)cc2O)cc1 [Compound 8] | – | – | – | – | – | – | – | – | weed control effect (activity level), Veronica polita ([1]; dose 2000 g/ha): 10; weed control effect (activity level), Rorippa indica ([2]; dose 2000 g/ha): 10; weed control effect (activity level), Chenopodiaceae ([3]; dose 2000 g/ha): 8 (Level 8: above 80% growth inhibition rate); weed control effect (activity level), Amaranthus retroflexus ([4]; dose 2000 g/ha): 10 |
| Cc1ccc(-c2nnc(C(F)(F)F)cc2O)cc1 [Compound 4] | – | – | – | – | – | – | – | – | weed control effect (activity level), Veronica polita ([1]; dose 2000 g/ha): 10; weed control effect (activity level), Rorippa indica ([2]; dose 2000 g/ha): 10; weed control effect (activity level), Chenopodiaceae ([3]; dose 2000 g/ha): 8 (Level 8: above 80% growth inhibition rate); weed control effect (activity level), Amaranthus retroflexus ([4]; dose 2000 g/ha): 10 |
| Oc1cc(C(F)(F)F)nnc1-c1c(F)cc(F)cc1F [Compound 52] | – | – | – | – | – | – | – | – | weed control effect (activity level), Veronica polita ([1]; dose 1000 g/ha): 10; weed control effect (activity level), Rorippa indica ([2]; dose 1000 g/ha): 10; weed control effect (activity level), Chenopodiaceae ([3]; dose 1000 g/ha): 10; weed control effect (activity level), Amaranthus retroflexus ([4]; dose 1000 g/ha): 10 |
| Cc1ccc(-c2nnc(C(F)(F)F)cc2O)cn1 [Compound 974] | 10 | 10 | 10 | 10 | – | – | – | – | – |
| Cc1ncccc1-c1nnc(C(F)(F)F)cc1O [Compound 973] | 10 | 10 | 10 | 10 | – | – | – | – | – |
| Oc1cc(C(F)(F)F)nnc1-c1cnccc1F [Compound 964] | 10 | 10 | 10 | 10 | – | – | – | – | – |
| Oc1cc(C(F)(F)F)nnc1-c1cccc(Br)c1 [Compound 31] | – | – | – | – | – | – | – | – | weed control effect (activity level), Veronica polita ([1]; dose 1000 g/ha): 10; weed control effect (activity level), Rorippa indica ([2]; dose 1000 g/ha): 10; weed control effect (activity level), Chenopodiaceae ([3]; dose 1000 g/ha): 10; weed control effect (activity level), Amaranthus retroflexus ([4]; dose 1000 g/ha): 10 |
| O=C(Oc1cc(C(F)(F)F)nnc1-c1ccc(F)cc1)c1cc(F)cc(F)c1F [Compound 1-93] | – | – | – | – | 10 | 10 | 10 | 10 | – |
| CCCn1cc(-c2nnc(C(F)(F)F)cc2O)cn1 [Compound 546] | 10 | 10 | 10 | 10 | – | – | – | – | – |
| Cc1ccc(-c2nnc(C(F)(F)F)cc2O)o1 [Compound 414] | 10 | 10 | 10 | 10 | – | – | – | – | – |
| CN1CCN(C(=O)Oc2cc(C(F)(F)F)nnc2-c2ccc(F)cc2)CC1 [Compound 1-64] | – | – | – | – | 10 | 10 | 10 | 10 | – |
| Cc1cnn(C)c1-c1nnc(C(F)(F)F)cc1O [Compound 808] | 10 | 10 | 10 | 10 | – | – | – | – | – |

| SMILES | weed control effect (activity level), Veronica polita ([1]; Dose 3000 g/ha) | weed control effect (activity level), Rorippa indica ([2]; Dose 3000 g/ha) | weed control effect (activity level), Chenopodiaceae ([3]; Dose 3000 g/ha) | weed control effect (activity level), Amaranthus retroflexus ([4]; Dose 3000 g/ha) | weed control effect, Veronica polita (activity level) ([1]; Dose 3000 g/ha) | weed control effect, Rorippa indica (activity level) ([2]; Dose 3000 g/ha) | weed control effect, Chenopodiaceae (activity level) ([3]; Dose 3000 g/ha) | weed control effect, Amaranthus retroflexus (activity level) ([4]; Dose 3000 g/ha) | also measured |
| --- | --- | --- | --- | --- | --- | --- | --- | --- | --- |
| Cn1ncc(Cl)c1-c1nnc(C(F)(F)F)cc1O [Compound 805] | 10 | 10 | 10 | 10 | – | – | – | – | – |
| Oc1cc(C(F)(F)F)nnc1-c1cncc(F)c1Cl [Compound 1002] | 10 | 10 | 10 | 10 | – | – | – | – | – |
| Cc1cc(Cl)ccc1-c1nnc(C(F)(F)F)cc1O [Compound 71] | – | – | – | – | – | – | – | – | weed control effect (activity level), Veronica polita ([1]; dose 1000 g/ha): 10; weed control effect (activity level), Rorippa indica ([2]; dose 1000 g/ha): 10; weed control effect (activity level), Chenopodiaceae ([3]; dose 1000 g/ha): 10; weed control effect (activity level), Amaranthus retroflexus ([4]; dose 1000 g/ha): 10 |
| O=S(=O)(Oc1cc(C(F)(F)F)nnc1-c1ccc(F)cc1)c1ccc(Cl)cc1Cl [Compound 1-133] | – | – | – | – | 10 | 10 | 10 | 10 | – |
| CC(=O)Oc1cc(C(F)(F)F)nnc1-c1cccc(F)c1 [Compound 1-1] | – | – | – | – | 10 | 10 | 10 | 10 | – |
| NC(=O)c1ccc(S(=O)(=O)Oc2cc(C(F)(F)F)nnc2-c2ccc(C(F)(F)F)cc2)cc1 [Compound 1-141] | – | – | – | – | 10 | 10 | 10 | 10 | – |
| Oc1cc(C(F)(F)F)nnc1-c1ccc2c(c1)OCO2 [Compound 771] | 10 | 10 | 10 | 10 | – | – | – | – | – |
| CCC(=O)Oc1cc(C(F)(F)F)nnc1-c1ccc(F)cc1 [Compound 1-4] | – | – | – | – | 10 | 10 | 10 | 10 | – |
| O=C(CSc1ccccc1)Oc1cc(C(F)(F)F)nnc1-c1ccc(F)c(F)c1 [Compound 1-95] | – | – | – | – | 10 | 10 | 10 | 10 | – |
| Oc1cc(C(F)(F)F)nnc1-c1ccc(Br)nc1 [Compound 966] | 10 | 10 | 10 | 10 | – | – | – | – | – |
| CCCOc1ccc(-c2nnc(C(F)(F)F)cc2O)cc1 [Compound 83] | – | – | – | – | – | – | – | – | weed control effect (activity level), Veronica polita ([1]; dose 1000 g/ha): 10; weed control effect (activity level), Rorippa indica ([2]; dose 1000 g/ha): 10; weed control effect (activity level), Chenopodiaceae ([3]; dose 1000 g/ha): 10; weed control effect (activity level), Amaranthus retroflexus ([4]; dose 1000 g/ha): 10 |
| CCOC(=S)Oc1cc(C(F)(F)F)nnc1-c1ccc(C)cc1 [Compound 1-155] | – | – | – | – | 10 | 10 | 10 | 10 | – |
| Oc1cc(C(F)(F)F)nnc1-c1cc(Cl)ncc1Cl [Compound 224] | – | – | – | – | – | – | – | – | weed control effect (activity level), Veronica polita ([1]; dose 2000 g/ha): 10; weed control effect (activity level), Rorippa indica ([2]; dose 2000 g/ha): 10; weed control effect (activity level), Chenopodiaceae ([3]; dose 2000 g/ha): 10; weed control effect (activity level), Amaranthus retroflexus ([4]; dose 2000 g/ha): 10 |
| O=S(Oc1cc(C(F)(F)F)nnc1-c1ccc(F)cc1)C(F)(F)F (stereo not drawn) [Compound 1-166] | – | – | – | – | 10 | 10 | 10 | 10 | – |
| Cn1ncc(C(F)(F)F)c1-c1nnc(C(F)(F)F)cc1O [Compound 823] | 10 | 10 | 10 | 10 | – | – | – | – | – |
| COc1ccccc1-c1nnc(C(F)(F)F)cc1O [Compound 94] | – | – | – | – | – | – | – | – | weed control effect (activity level), Veronica polita ([1]; dose 1000 g/ha): 10; weed control effect (activity level), Rorippa indica ([2]; dose 1000 g/ha): 10; weed control effect (activity level), Chenopodiaceae ([3]; dose 1000 g/ha): 10; weed control effect (activity level), Amaranthus retroflexus ([4]; dose 1000 g/ha): 10 |
| CCn1nc(C2CC2)cc1-c1nnc(C(F)(F)F)cc1O [Compound 827] | 10 | 10 | 10 | 10 | – | – | – | – | – |
| CCC(=O)Oc1cc(C(F)(F)F)nnc1-c1ccc(F)c(F)c1 [Compound 1-3] | – | – | – | – | 10 | 10 | 10 | 10 | – |
